Measurements reported in patent publication US20260062437A1, “ANTIVIRAL COMPOUNDS” (priority 2022, published 2026).
Entries after “also recorded” stand apart in the source; their conditions may differ. Read-outs that look alike come from different tables or passages of the source.

Key:
polymerase of ZIKV = polymerase of ZIKV (Zika virus, UniProt Q32ZE1); conditions: cited from earlier work
polymerase of SARS-CoV-2 = polymerase of SARS-CoV-2 (Severe acute respiratory syndrome coronavirus 2, UniProt P0DTD1); conditions: cited from earlier work
[1] = biological target: polymerase of hepatitis C (HCV) (Hepatitis C virus genotype 1a, UniProt P27958); conditions: cited from earlier work
Chain of polymerase of hepatitis C (HCV) (P27958 2421-3011 limits assumed): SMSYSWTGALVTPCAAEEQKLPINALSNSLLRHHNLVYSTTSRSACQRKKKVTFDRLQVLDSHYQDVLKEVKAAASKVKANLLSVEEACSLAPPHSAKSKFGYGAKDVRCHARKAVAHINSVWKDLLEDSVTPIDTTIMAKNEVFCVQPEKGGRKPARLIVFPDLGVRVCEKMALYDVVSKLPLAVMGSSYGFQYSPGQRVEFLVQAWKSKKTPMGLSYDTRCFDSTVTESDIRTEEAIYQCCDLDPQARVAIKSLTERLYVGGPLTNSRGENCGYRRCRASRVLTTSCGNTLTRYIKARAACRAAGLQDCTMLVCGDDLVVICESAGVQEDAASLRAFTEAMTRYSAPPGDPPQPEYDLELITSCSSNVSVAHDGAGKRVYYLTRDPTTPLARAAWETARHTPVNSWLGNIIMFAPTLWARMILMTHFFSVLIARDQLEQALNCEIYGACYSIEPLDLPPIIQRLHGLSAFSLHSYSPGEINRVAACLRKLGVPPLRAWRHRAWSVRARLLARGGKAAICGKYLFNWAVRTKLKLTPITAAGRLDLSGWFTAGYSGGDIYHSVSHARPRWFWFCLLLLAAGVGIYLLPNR

polymerase of WNV = polymerase of WNV (West Nile virus, UniProt P06935); conditions: cited from earlier work
Chain of polymerase of WNV (P06935 2526-3430): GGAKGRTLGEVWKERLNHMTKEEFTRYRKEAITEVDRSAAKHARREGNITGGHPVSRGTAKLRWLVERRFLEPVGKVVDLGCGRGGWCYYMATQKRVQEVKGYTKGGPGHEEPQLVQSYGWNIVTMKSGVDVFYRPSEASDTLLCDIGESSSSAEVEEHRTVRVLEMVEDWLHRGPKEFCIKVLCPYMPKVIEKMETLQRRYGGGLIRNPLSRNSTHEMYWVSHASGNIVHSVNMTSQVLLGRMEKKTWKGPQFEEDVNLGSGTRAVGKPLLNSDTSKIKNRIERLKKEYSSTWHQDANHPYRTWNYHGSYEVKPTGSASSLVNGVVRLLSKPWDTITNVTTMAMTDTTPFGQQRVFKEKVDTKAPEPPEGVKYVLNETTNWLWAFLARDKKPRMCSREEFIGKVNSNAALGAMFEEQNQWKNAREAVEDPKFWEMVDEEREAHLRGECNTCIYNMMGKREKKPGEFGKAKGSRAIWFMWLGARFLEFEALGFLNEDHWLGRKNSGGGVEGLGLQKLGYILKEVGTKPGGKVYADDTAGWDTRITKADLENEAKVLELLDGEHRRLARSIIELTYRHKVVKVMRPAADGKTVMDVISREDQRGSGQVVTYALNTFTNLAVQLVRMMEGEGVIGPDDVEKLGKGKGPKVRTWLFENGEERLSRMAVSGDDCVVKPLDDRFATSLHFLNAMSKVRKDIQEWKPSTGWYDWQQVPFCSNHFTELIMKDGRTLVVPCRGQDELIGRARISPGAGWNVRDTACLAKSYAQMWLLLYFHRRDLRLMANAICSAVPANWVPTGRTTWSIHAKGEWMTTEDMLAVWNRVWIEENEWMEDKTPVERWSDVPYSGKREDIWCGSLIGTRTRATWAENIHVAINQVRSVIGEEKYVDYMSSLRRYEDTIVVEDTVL

[2] = biological target: polymerase of dengue (DENV) (Dengue virus type 2, UniProt P29990); conditions: cited from earlier work
Chain of polymerase of dengue (DENV) (P29990 2492-3391): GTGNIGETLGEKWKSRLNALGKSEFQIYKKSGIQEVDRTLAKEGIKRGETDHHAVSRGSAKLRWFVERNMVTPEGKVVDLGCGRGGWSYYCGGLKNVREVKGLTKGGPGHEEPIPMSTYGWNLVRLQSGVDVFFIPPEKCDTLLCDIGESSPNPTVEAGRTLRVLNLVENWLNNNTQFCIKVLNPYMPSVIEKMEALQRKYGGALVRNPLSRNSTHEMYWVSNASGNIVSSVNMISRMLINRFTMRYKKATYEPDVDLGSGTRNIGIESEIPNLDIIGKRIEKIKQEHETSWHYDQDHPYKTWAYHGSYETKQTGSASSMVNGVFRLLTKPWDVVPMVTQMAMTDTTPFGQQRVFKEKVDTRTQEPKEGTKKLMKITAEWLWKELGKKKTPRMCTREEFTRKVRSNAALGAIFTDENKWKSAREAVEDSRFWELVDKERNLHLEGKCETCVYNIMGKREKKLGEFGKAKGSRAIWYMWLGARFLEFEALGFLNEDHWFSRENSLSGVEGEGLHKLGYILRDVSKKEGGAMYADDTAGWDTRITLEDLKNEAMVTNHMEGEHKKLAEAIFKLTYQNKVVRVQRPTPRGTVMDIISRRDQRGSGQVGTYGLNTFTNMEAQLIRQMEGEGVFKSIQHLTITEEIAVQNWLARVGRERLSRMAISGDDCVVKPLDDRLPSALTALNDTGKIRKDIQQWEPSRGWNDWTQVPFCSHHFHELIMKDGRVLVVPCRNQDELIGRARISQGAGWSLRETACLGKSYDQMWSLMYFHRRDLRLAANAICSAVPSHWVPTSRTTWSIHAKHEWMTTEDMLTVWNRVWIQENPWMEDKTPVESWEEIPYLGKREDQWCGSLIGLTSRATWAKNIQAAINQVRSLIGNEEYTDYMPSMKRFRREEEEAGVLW

polymerase of polio (PV) = polymerase of polio (PV) (Poliovirus type 1, UniProt P03300); conditions: cited from earlier work
Chain of polymerase of polio (PV) (P03300 1749-2209 limits assumed): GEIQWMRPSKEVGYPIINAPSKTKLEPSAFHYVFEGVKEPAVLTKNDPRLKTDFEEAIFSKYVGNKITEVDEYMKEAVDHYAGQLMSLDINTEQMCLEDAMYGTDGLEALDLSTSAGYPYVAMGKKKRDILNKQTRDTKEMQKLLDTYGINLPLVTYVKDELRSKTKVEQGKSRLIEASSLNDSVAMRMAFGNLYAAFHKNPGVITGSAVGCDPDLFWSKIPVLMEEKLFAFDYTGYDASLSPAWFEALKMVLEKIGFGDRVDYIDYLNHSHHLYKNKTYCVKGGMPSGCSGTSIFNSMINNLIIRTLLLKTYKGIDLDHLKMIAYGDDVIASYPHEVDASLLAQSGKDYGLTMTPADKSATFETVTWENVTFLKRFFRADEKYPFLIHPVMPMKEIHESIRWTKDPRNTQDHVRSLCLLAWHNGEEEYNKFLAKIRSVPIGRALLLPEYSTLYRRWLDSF

ZIKV [3] = conditions: cited from earlier work; for antiviral activity against ZIKV: previously tested
WNV = conditions: previously tested, cited from earlier work
Vero cells = assay: Cytotoxicity assay (Alamar blue) in Vero cells; type: cell-based; conditions: for cytotoxicity / change in cell viability: after 2 or 5 days; for change in cell viability: over/after 5 days; for decrease in cell viability: after 5 days (HLB-0532246: at high concentrations)
Method: (§1) HUH7 and Vero cell lines were maintained in a humidified 5% CO2 environment at 37° C. HUH7 cells were cultured in DMEM (4500 mg/L “high glucose”+L-glutamine+25 mM HEPES-sodium pyruvate) supplemented with fetal bovine serum (10% FBS), penicillin (100 IU/mL), streptomycin ([…]), and 1% nonessential amino acids (NEAA). Vero cells were cultured in EMEM media supplemented with FBS (10% FBS), penicillin (100 IU/mL), and streptomycin (100 μg/mL). Cytotoxicity assays were done similarly to a previous report (J. Med. Chem. 2021, 64, 15429-15439). HUH7 or Vero cells were seeded at 2,000 cells/well in their appropriate cell culture media (50 μL) in 96-well clear plates and incubated for 24 hours. A DMSO solution of each individual compound was serially diluted (solution concentrations of 0.1, 0.5 and 1.0 mM were made) in the appropriate cell line media, and each solution (50 μL) was dosed to the cells (well volume total of 100 μL; final DMSO concentration of 0.5%). DMSO-only and no-cell control wells were dosed with a DMSO-media solution (50 μL of 1% DMSO in media) rather than compound. The cells were then incubated for 2 or 5 days. Two hours before the designated time point, Alamar blue (10 μL) was added to each well. At the time point, fluorescence data were measured using a BioTek Synergy H1 microplate reader. Cell viability was calculated by subtracting background fluorescence (no-cell control) from the measured fluorescence of each well. Wells with compounds were normalized to the DMSO-only control (100% viability) and no-cell controls. Each individual experiment was performed in groups of three technical replicates. For the reported Vero studies, cytotoxicity experiments were repeated in biological triplicate. The final cell viability percentage was calculated by averaging % viability from each of the biological replicates, and the uncertainty was calculated by propagating the standard deviations from each biological replicate (taking the square root of the sum of the squares of individual standard deviations).

HUH7 cells = assay: Cytotoxicity assay (Alamar blue) in HUH7 cells; type: cell-based; conditions: for cytotoxicity / change in cell viability: after 2 or 5 days; for change in cell viability: over/after 5 days; for decrease in cell viability: after 5 days (HLB-0532246: at high concentrations)
Method: as §1

ZIKV [4] = assay: Antiviral testing against ZIKV; type: cell-based, Zika Virus
West Nile Virus = assay: Antiviral plaque assay with West Nile Virus; type: cell-based

Chain of polymerase of ZIKV (Q32ZE1 2517-3419): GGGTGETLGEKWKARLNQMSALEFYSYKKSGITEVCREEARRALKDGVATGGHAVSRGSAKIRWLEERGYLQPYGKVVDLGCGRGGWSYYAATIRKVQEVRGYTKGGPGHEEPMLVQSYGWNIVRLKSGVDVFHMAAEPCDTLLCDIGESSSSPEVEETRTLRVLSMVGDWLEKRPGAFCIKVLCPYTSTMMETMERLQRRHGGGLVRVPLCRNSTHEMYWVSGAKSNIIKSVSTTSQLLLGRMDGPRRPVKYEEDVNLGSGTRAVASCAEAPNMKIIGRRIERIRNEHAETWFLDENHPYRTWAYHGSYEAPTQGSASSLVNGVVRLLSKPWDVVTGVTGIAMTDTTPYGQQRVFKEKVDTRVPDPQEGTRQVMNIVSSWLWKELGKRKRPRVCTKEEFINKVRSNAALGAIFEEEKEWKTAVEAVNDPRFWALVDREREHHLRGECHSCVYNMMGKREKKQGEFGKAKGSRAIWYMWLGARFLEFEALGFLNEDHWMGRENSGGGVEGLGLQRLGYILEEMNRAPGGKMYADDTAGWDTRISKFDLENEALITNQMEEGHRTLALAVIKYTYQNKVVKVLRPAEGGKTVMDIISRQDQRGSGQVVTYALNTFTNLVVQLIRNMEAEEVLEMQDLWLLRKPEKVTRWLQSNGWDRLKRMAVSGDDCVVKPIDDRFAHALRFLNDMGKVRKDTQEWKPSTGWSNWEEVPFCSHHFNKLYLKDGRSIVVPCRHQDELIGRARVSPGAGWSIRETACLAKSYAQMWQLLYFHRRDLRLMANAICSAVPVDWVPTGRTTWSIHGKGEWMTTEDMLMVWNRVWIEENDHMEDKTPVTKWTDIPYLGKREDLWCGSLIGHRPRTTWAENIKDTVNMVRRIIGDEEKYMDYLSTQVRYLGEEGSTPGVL

Nc1ccn([C@@H]2OC(COP(=O)(O)OP(=O)(O)OP(=O)(O)O)=C[C@H]2O)c(=O)n1 [ddhCTP, 3′-Deoxy-3′,4′-didehydro-cytidine-5′-triphosphate]
inhibition of ZIKV polymerase (polymerase of ZIKV): inhibits | inhibition of SARS-CoV-2 polymerase (polymerase of SARS-CoV-2): inhibits | inhibition of HCV polymerase [1]: inhibits | inhibition of WNV polymerase (polymerase of WNV): inhibits | inhibition of DENV polymerase [2]: inhibits | inhibition of PV polymerase (polymerase of polio (PV)): weak inhibition

CC(C)OC(=O)[C@H](C)N[P@](=O)(OCC1=C[C@H](O)[C@H](n2ccc(N)nc2=O)O1)Oc1ccccc1 [HLB-0532247]
antiviral activity against ZIKV (ZIKV [3]; HUH7 cells): potent antiviral activity | antiviral activity against ZIKV (ZIKV [3]; Vero cells): potent antiviral activity | antiviral activity against WNV (WNV; HUH7 cells): potent antiviral activity | cytotoxicity / change in cell viability (Vero cells): did not show any cytotoxicity | cytotoxicity / change in cell viability (HUH7 cells): did not show any cytotoxicity

Cc1cn([C@@H]2OC(CO[P@@](=O)(N[C@@H](C)C(=O)OC(C)C)Oc3ccccc3)=C[C@@H]2O)c(=O)[nH]c1=O [HLB-0535065]
cytotoxicity / change in cell viability (Vero cells): did not show any cytotoxicity | cell viability (HUH7 cells; by day 5): 50% | antiviral activity against ZIKV (ZIKV [4]): no activity | antiviral activity against West Nile Virus (West Nile Virus): no activity

Nc1ccn([C@@H]2OC(CO)=C[C@H]2O)c(=O)n1 [3′-deoxy-3′,4′-didehydro-cytidine]
ZIKV inhibitory activity (ZIKV [3]; cellular studies (Gizzi et al., Nature 2018)): only weak ZIKV inhibitory activity

CC(C)OC(=O)[C@H](C)N[P@](=O)(OCC1=C[C@H](O)[C@H](n2cnc3c(=O)[nH]cnc32)O1)Oc1ccccc1 [HLB-0535083]
change in cell viability (Vero cells): No change in cell viability | change in cell viability (HUH7 cells): No change in cell viability | antiviral activity against ZIKV (ZIKV [4]): no activity | antiviral activity against West Nile Virus (West Nile Virus): no activity

Nc1nc2c(ncn2[C@@H]2OC(CO)=C[C@@H]2O)c(=O)[nH]1 [HLB-0535072]
cytotoxicity / change in cell viability (Vero cells): No significant change in cell viability | change in cell viability (HUH7 cells): slight decrease in cell viability | antiviral activity against ZIKV (ZIKV [4]): Antiviral activity was observed | antiviral activity against West Nile Virus (West Nile Virus): no activity

O=c1ccn([C@@H]2OC(CO)=C[C@@H]2O)c(=O)[nH]1 [HLB-0535069]
change in cell viability (Vero cells): did not show a significant decrease in cell viability | change in cell viability (HUH7 cells): did not show a significant decrease in cell viability | antiviral activity against ZIKV (ZIKV [4]): did not display antiviral activity | antiviral activity against West Nile Virus (West Nile Virus): no activity

Cc1cn([C@@H]2OC(CO)=C[C@@H]2O)c(=O)[nH]c1=O [HLB-0535066]
cytotoxicity / change in cell viability (Vero cells): did not show any cytotoxicity | change in cell viability (HUH7 cells): remained unchanged | antiviral activity against ZIKV (ZIKV [4]): no activity | antiviral activity against West Nile Virus (West Nile Virus): no activity

CC(C)OC(=O)[C@H](C)N[P@](=O)(OCC1=C[C@H](O)[C@H](n2ccc(=O)[nH]c2=O)O1)Oc1ccccc1 [HLB-0532254]
decrease in cell viability (Vero cells): 10% | decrease in cell viability (HUH7 cells): 25% | antiviral activity against ZIKV (ZIKV [4]; at 1.0 mM): did not display antiviral activity | antiviral activity against ZIKV (ZIKV [4]; dosed at 0.1 mM): potent activity | antiviral activity against West Nile Virus (West Nile Virus): no activity; also recorded: not active

CC(C)OC(=O)[C@H](C)N[P@](=O)(OCC1=C[C@H](O)[C@H](n2cnc3c(=O)[nH]c(N)nc32)O1)Oc1ccccc1 [HLB-0535073]
cytotoxicity / change in cell viability (Vero cells): No significant change in cell viability | cytotoxicity / change in cell viability (HUH7 cells): No significant change in cell viability | antiviral activity against ZIKV (ZIKV [4]): Antiviral activity was observed | antiviral activity against West Nile Virus (West Nile Virus): no activity

Nc1ccn([C@@H]2OC(CO)=C[C@@H]2O)c(=O)n1 [HLB-0532246, reference compound]
antiviral activity against ZIKV (ZIKV [3]; Vero cells): demonstrated antiviral activity | antiviral activity against WNV (WNV; cell line not stated): inactive | decrease in cell viability (Vero cells): 10% | decrease in cell viability (HUH7 cells): 10%
